Data on eleven compounds can be found in patent US4450170A, “Treatment of diarrhoea with 2-aminoimidazoline derivatives” (Beecham Group Limited, priority 1980, dated 1984).

Broadly, the inhibition in vivo is how much of the control response was suppressed. A low value points to a weak effect. The term ED50 denotes the dose that gives a 50% effect, or the effect in half of the subjects.

For test [1], the system named is fluid secretion caused by the enterotoxin(s) present in culture filtrate from an enteropathogenic strain of E. coli. Kind of test: animal or person. Type of test: in vivo, infant mice. As to conditions: for activity in the reduction of fluid secretion (in words): mouse, in vivo.
Test [2] relates to diarrhoea induced by culture filtrate from an enteropathogenic strain of E. coli. Also noted: species or system 2-4 day old piglets. As to conditions: in vivo, po.
A further test has as its system E. coli P16. Nature of the test: Inhibition of Diarrhoea Resulting from E. coli Infection (piglets). As to conditions: Group B, Neomycin 30 mg/Kg po. Type of test: in vivo, colostrum deprived piglets. How it is done:
2-4 day old piglets were dosed with the compound orally 45 mins prior to oral challenge with 25 ml of culture filtrate prepared from an enteropathogenic strain of E. coli. Control animals received drug vehicle 45 mins prior to challenge with a similar volume of material. […] After 6 hours observation some piglets were given a second dose of drug (or placebo) and observations were continued for a further six hours. The percentage inhibition in treated animals was determined as: [formula]
Colostrum deprived piglets were infected with 5 ml of an overnight culture containing 10^8 -10^9 viable E. coli P16/ml. The following day, piglets were matched by weight and scour score and then treated and observed for 6 hours in a similar manner to toxin challenged piglets, as described above.

Several values for one entry are separate records, joined by “and”; a condition that tells them apart may be missing. Equal values may be shown once. Where a name gives a salt, the structure may show the parent alone.

In test [1] (Mus musculus, po), `Cc1cc(N)cc(C)c1N=C1NCCN1` [Example 13, 2-(4-amino-2,6-dimethylphenylimino)imidazolidine] showed an inhibition in vivo at 10 mg/kg of 66%, an inhibition in vivo at 50 mg/kg of 54% and an inhibition in vivo at 200 mg/kg of 69%. Further, in test [2], the “% inhibition of scour” value is 78% and 69% and 62%; the “Mean Scour Score ± SEM, drug treated” value is 0.5 ± 0.2 and 0.6 ± 0.3 and 0.6 ± 0.2.

Regarding `Clc1cc(N=C2NCCN2)cc(Cl)c1NC1=NCCN1` [Example 16, 2-(2,6-dichloro-4-imidazolino-2-iminophenylimino)imidazolidine], in test [1] (Mus musculus, po), testing at 100 mg/kg gave an inhibition in vivo of 29% and 400 mg/kg produced 41% inhibition in vivo.

For the compound `NCc1cc(Cl)c(N=C2NCCN2)c(Cl)c1` [Example 14, 2-(4-aminomethyl-2,6-dichlorophenylimino)imidazolidine], in test [1] (Mus musculus, po), the inhibition in vivo at 50 mg/kg turned out to be 38% and the inhibition in vivo at 200 mg/kg is 39%.

In test [1] (Mus musculus, po), `CN(C1=NCCN1)c1c(Cl)cc(N)cc1Cl` [R5 H, R6 CH3, Ra p-NH2, Rb o-Cl, R11 Cl] displayed an inhibition in vivo at 10 mg/kg of 37%, an inhibition in vivo at 50 mg/kg of 62% and an inhibition in vivo at 200 mg/kg of 72%.

In test [1] (Mus musculus, po), `Nc1cc(Br)c(NC2=NCCN2)c(Br)c1` [Example 12, 2-(4-amino-2,6-dibromophenylimino)imidazolidine] showed an inhibition in vivo at 10 mg/kg of 48%, an inhibition in vivo at 50 mg/kg of 65% and an inhibition in vivo at 200 mg/kg of 85%.

In test [1] (Mus musculus, po), `Nc1cc(Cl)c(NC2=NCCN2)c(Cl)c1` [p-Amino clonidine dihydrochloride, p-amino Clonidine dihydrochloride] yielded an inhibition in vivo at 10 mg/kg of 59% and an inhibition in vivo at 50 mg/kg of 78%. Besides, in test [1] (Mus musculus, po, read-out: calculated ED50), the ED50 was 0.25 mg/kg. For the same compound, the “activity in the reduction of fluid secretion (in words)” value in test [1] was “high level of activity”. Moreover, in test [2], the “% inhibition of scour” value was found to be 79% and the “Mean Scour Score ± SEM, drug treated” value stood at 0.4 ± 0.2.

As to `CN(C)C(=O)C(CCN1CCC(O)(c2ccc(Cl)cc2)CC1)(c1ccccc1)c1ccccc1` [Loperamide, reference compound], the “activity in the reduction of fluid secretion (in words)” value in test [1] is recorded as “considerably less active than the p-amino Clonidine dihydrochloride”.

On to `CCN(CC)Cc1cc(Cl)c(N=C2NCCN2)c(Cl)c1` [Example 15, 2-(2,6-dichloro-4-diethylaminomethylphenylimino)imidazolidine], for which, in test [1] (Mus musculus, po), the inhibition in vivo at 50 mg/kg came to 28%, the inhibition in vivo at 200 mg/kg amounted to 37% and at 500 mg/kg the inhibition in vivo was 42%.

Take `CCNc1cc(Cl)c(NC2=NCCN2)c(Cl)c1` [R5 H, R6 H, Ra p-NHEt, Rb o-Cl, R11 Cl]: in test [1] (Mus musculus, po), the inhibition in vivo at 10 mg/kg is 59%, 50 mg/kg produced 79% inhibition in vivo and the inhibition in vivo at 200 mg/kg is 97%.

In test [1] (Mus musculus, po), `CNC(=Nc1cc(Cl)c(NC2=NCCN2)c(Cl)c1)NC` [Example 17, 2-[2,6-dichloro-4-(1,3-dimethylguanidino)phenylimino]imidazolidine] gave an inhibition in vivo at 10 mg/kg of 33%, an inhibition in vivo at 50 mg/kg of 37% and an inhibition in vivo at 200 mg/kg of 53%.

Neomycin: the “% inhibition of scour” value in the test with E. coli P16 stood at 16%. Also, in the test with E. coli P16 (placebo 2.9 ± 0.1), the “Mean Scour Score ± SEM” value was 2.4 ± 0.2. For the same compound, the “Mortality over 7 days” value with E. coli P16 (placebo 25%) amounted to 0%.
